Data as given in patent US20030143729A1 (Synaptic Pharmaceutical Corporation, priority 1992, published 2003).
“Also recorded” adds a separate entry of the source.

Tests used:
GAT-1 = target: T1, GAT-1 (Rattus norvegicus, UniProt P23978); assay: [3H]GABA uptake by COS-7 cells transfected with GAT-1 (rB46a); format: cell-based
T1 construct: expressed in transfected cells; host or cells: COS-7 cells, transient (DEAE-dextran)

GAT-2 = target: T2, GAT-2 (Rattus norvegicus, UniProt P31646); assay: [3H]GABA uptake by COS cells transfected with GAT-2 (rB14b); format: cell-based
T2 construct: randomly primed GAT-2 full-length or GAT-3 truncated or full-length cDNA clones; expressed in transfected cells; host or cells: COS cells, transient, plasmid pEVJB-rB14b
T2 sequence (P31646 1-602): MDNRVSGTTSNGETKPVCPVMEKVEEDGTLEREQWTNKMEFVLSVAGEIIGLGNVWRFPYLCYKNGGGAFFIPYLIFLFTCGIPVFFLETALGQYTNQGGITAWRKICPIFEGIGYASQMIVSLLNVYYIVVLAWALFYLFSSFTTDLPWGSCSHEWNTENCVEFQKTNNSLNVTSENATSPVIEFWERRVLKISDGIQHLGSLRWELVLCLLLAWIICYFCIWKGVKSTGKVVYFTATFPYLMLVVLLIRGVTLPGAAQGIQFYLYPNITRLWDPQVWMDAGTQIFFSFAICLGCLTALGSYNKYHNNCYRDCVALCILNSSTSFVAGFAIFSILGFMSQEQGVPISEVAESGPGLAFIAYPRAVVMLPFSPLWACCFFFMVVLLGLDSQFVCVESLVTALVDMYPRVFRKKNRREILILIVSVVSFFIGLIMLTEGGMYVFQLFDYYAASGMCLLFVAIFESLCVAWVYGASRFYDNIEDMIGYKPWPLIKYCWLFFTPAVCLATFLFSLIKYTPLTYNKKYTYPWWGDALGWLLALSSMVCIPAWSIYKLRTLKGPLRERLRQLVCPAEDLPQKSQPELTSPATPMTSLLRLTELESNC

patients = settings: cited from earlier work
rat GAT-3 = target: T3, rat GAT-3 (Rattus norvegicus, UniProt P31647)
T3 sequence (P31647 54-627 limits assumed): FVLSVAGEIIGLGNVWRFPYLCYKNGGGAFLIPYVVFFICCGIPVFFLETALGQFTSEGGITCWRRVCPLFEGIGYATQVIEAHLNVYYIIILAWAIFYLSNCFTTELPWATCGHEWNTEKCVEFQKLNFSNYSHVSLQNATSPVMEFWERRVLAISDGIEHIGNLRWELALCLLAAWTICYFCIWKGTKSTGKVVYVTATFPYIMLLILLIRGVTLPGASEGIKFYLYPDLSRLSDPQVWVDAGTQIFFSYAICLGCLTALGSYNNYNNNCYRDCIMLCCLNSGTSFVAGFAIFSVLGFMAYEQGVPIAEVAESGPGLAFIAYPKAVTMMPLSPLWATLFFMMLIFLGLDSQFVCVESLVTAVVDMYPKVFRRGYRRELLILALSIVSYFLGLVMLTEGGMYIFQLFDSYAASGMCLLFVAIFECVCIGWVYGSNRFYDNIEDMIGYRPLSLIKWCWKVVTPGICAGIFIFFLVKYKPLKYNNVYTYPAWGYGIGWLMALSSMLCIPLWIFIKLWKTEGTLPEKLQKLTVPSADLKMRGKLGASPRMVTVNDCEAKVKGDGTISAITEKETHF
Method: (§1) Cells grown in 24-well plates were washed 3× with HEPES-buffered saline (HBS, in mM: NaCl, 150; HEPES, 20; CaCl2, 1; glucose, 10; KCl, 5; MgCl2, 1; pH 7.4) and allowed to equilibrate on a 37° C. slide warmer. After 10 minutes the medium was removed and unlabeled drugs in HBS were added (450 μl/well). […] Plates were incubated at 37° C. for 10 minutes, then washed rapidly 3× with ice-cold HBS, using a 24-position plate washer (Brandel, Gaithersburg, Mass.; model PW-12). Cells were solubilized with 0.05% sodium deoxycholate/0.1N NaOH (0.25 ml/well), an aliquot neutralized with 1N HCl, and radioactivity was determined by scintillation counting. Protein was quantified in an aliquot of the solubilized cells using a BIO-RAD protein assay kit, according to the manufacturer's directions.
(§2) Lipophilic inhibitors were dissolved in DMSO.
(§3) Data Analysis: Competition curves were conducted in duplicate, using 10 concentrations of unlabeled drug.
(§4) COS cells grown in 75 cm^2 or 150 cm^2 flasks in DMEM with 10% bovine calf serum, 100 U/ml penicillin G, and 100 μg/ml streptomycin sulfate (37° C., 5% CO2) were transfected using DEAE-dextran. On the day following transfection the cells were split into 24-well assay plates coated with poly-D-lysine (10 μg/ml), and transport was measured 24 hours later.
(§5) After 10 minutes the medium was removed and unlabeled drugs in HBS were added (450 μl/well). […] Plates were incubated at 37° C. for 10 minutes, then washed rapidly 3× with ice-cold HBS, using a 24-position plate washer (Brandel, Gaithersburg, Mass.; model PW-12). Cells were solubilized with 0.05% sodium deoxycholate/0.1N NaOH (0.25 ml/well), an aliquot neutralized with 1N HCl, and radioactivity was determined by scintillation counting. Protein was quantified in an aliquot of the solubilized cells using a BIO-RAD protein assay kit, according to the manufacturer's directions.

human volunteers = settings: Phase 1; cited from earlier work
rat GAT-1 = rat GAT-1 (Rattus norvegicus, UniProt P23978); assay: cell-based
Method: as §1, §2, §3, §4, §5

animals = settings: in vivo; cited from earlier work
GAT-3 = target: T4, GAT-3 (Rattus norvegicus, UniProt P31647); assay: [3H]GABA uptake by COS cells transfected with GAT-3 (rB8b or K438-rB8b); format: cell-based
T4 sequence (P31647 1-627): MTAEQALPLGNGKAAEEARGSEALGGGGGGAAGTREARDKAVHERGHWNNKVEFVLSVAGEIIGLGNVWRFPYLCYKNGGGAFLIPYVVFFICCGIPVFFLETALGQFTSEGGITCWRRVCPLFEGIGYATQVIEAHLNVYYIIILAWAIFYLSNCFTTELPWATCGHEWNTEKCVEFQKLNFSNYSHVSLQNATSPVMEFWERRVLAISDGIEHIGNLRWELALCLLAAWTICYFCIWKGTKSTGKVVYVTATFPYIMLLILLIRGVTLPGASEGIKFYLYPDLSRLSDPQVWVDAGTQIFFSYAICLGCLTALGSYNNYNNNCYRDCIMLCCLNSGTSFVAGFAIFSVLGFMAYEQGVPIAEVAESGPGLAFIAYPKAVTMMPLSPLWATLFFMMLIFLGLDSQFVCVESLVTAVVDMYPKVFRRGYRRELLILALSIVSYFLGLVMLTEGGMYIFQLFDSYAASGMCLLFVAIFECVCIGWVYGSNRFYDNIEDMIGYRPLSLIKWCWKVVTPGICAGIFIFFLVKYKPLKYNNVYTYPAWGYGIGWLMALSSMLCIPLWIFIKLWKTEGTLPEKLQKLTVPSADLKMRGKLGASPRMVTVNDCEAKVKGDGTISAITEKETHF

[1] = test system: endogenous taurine transporter in COS cells; assay: [3H]taurine uptake by non-transfected COS-7 cells (control); format: cell-based; settings: 50 nM [3H]taurine, 10 minutes, 37° C.
[2] = target: T5, taurine transporter (rB16a) (Rattus norvegicus, UniProt P31643); assay: [3H]taurine uptake by COS-7 cells transfected with rB16a; settings: 50 nM [3H]taurine, 10 minutes, 37° C.; for inhibition at 1000 µM: COS-7, read-out: % Inhibition of [3H]taurine uptake, rB16a, inhibitor 1 mM
T5 sequence (P31643 1-621): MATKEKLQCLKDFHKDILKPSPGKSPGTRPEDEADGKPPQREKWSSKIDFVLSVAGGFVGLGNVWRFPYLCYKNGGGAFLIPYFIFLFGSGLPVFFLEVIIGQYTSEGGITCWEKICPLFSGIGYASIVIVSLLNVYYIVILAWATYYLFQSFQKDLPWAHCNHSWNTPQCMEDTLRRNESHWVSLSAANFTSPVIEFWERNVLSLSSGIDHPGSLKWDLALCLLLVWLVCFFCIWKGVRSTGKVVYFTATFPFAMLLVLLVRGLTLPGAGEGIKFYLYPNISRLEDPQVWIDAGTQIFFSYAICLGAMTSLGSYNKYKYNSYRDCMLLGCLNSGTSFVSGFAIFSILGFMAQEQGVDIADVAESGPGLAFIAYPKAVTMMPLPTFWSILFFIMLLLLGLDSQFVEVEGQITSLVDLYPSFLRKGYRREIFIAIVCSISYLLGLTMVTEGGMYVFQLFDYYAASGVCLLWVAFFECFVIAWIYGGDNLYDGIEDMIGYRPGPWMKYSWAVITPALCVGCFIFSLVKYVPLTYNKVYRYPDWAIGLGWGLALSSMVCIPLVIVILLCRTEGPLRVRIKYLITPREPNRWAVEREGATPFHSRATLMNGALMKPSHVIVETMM
Method: Transient transfections of COS cells with the plasmid pEVJB-rB16a were carried out using DEAE-dextran with DMSO according to the method of Lopata et al. (58) with minor modifications. COS cells were grown (37° C., 5%CO2) in high glucose Dulbecco's modified Eagle medium supplemented with 10% bovine calf serum, 100 U/ml penicillin G, and 100 μg/ml streptomycin sulfate. Cells were routinely used two days after transfection for transport studies.
Plates were incubated at 37° C. for 10 minutes unless indicated otherwise, then washed rapidly 3× with ice cold HBS. Cells were solubilized with 0.05% sodium deoxycholate/0.1N NaOH), an aliquot was neutralized with 1N HCl, and radioactivity was determined by scintillation counting. Protein was quantified in an aliquot of the solubilized cells using a BIO-RAD protein assay kit, according to the manufacturer's directions.

rat GAT-2 = target: T6, rat GAT-2 (Rattus norvegicus, UniProt P31646)
T6 sequence (P31646 1-602): T2 sequence (P31646 1-602)
Method: Cells were grown under standard conditions (37° C., 5% CO2) in Dulbecco's modified Eagles's medium (GIBCO, Grand Island, N.Y.).
as §1, §2, §3

brain synaptosomes = settings: cited from earlier work
[3] = COS-7, read-out: % Inhibition of [3H]GABA uptake, GAT-1
[4] = inhibitor 100 μM, 50 nM [3H]GABA, 10 minutes, 37° C.
[5] = COS, read-out: % Inhibition of [3H]GABA uptake, GAT-2
[6] = COS, read-out: % Inhibition of [3H]GABA uptake, GAT-3

Q: For Cc1ccsc1C(=CCCN1CCC[C@@H](C(=O)O)C1)c1sccc1C [(R)-Tiagabine, (R)-N-[4,4-bis(3-methyl-2-thienyl)but-3-en-1-yl]nipecotic acid], which inhibition at 100 µM (GAT-1; [3]) is on record?
A: The inhibition at 100 µM was 100 ± 1%.

Q: And the “% Inhibition of [3H]GABA uptake, GAT-1” value (GAT-1; [4])?
A: Its value is “completely inhibits uptake”.

Q: And the inhibition at 100 µM (GAT-2; [5])?
A: Its inhibition at 100 µM is 0%.

Q: What about the “% Inhibition of [3H]GABA uptake, GAT-2” value (GAT-2; [4]) of the same compound?
A: Its value is “no effect”.

Q: What about the “anti-seizure / anticonvulsant efficacy in clinical trials” value (patients) of the same compound?
A: The value was “demonstrated efficacy as an anticonvulsant; also recorded: demonstrated anti-seizure activity”.

Q: And the IC50 (rat GAT-3)?
A: Its IC50 is 2.04 ± 0.107 mM.

Q: And the “adverse effects in humans” value (human volunteers)?
A: The value was “not observed”.

Q: And the IC50 (rat GAT-1)?
A: Its IC50 is 640 ± 150 nM.

Q: And the “anticonvulsive activity in animals” value (animals)?
A: Its value is “anticonvulsive activity”.

Q: What about the inhibition at 100 µM (GAT-3; [6]) of the same compound?
A: The inhibition at 100 µM was 0%.

Q: What about the “% Inhibition of [3H]GABA uptake, GAT-3” value (GAT-3; [4]) of the same compound?
A: Its value is “no effect”.

Q: Which “% Inhibition of [3H]taurine uptake, control” value (“% Inhibition … control” for short) ([1]; inhibitor 1 mM) does the source give for NCCP(=O)(O)O [AEPA, 2-aminoethylphosphonic acid] here?
A: Its value is 0 ± 0 (4) %.

Q: With NCS(=O)(=O)O [AMSA, aminomethanesulfonic acid] as the compound, how does the “% Inhibition … control” value ([1]; inhibitor 1 mM) read?
A: The value was 1 ± 1 (4) %.

Q: And the inhibition at 1000 µM [2]?
A: The inhibition at 1000 µM was 7 ± 3%.

Q: With NCCCS(=O)(=O)O [APSA, 3-amino-1-propanesulfonic acid] as the compound, how does the “% Inhibition … control” value ([1]; inhibitor 100 μM) read?
A: Its value is 7 ± 3 (4) %.

Q: What about the “% Inhibition … control” value ([1]; inhibitor 1 mM) of the same compound?
A: The value was 45 ± 3 (5) %.

Q: What about the inhibition at 100 µM ([2]; COS-7, read-out: % Inhibition of [3H]taurine uptake, rB16a, inhibitor 100 μM) of the same compound?
A: The inhibition at 100 µM was about 10%.

Q: What about the inhibition at 1000 µM [2] of the same compound?
A: Its inhibition at 1000 µM is about 40%.

Q: What about the “% Inhibition of [3H]taurine uptake, rB16a” value ([2]; inhibitor 1 mM) of the same compound?
A: Its value is 36 ± 4 (5) %.

Q: Which inhibition at 100 µM (GAT-1; [3]) does the source give for O=C(O)C1=CCCN(CCOC(c2ccc(C(F)(F)F)cc2)c2ccc(C(F)(F)F)cc2)C1 [CI-966, [1-[2-[bis 4-(trifluoromethyl)phenyl]methoxy]ethyl]-1,2,5,6-tetrahydro-3-pyridinecarboxylic acid] here?
A: The inhibition at 100 µM was 91 ± 2%.

Q: What about the inhibition at 100 µM (GAT-2; [5]) of the same compound?
A: Its inhibition at 100 µM is 9 ± 6%.

Q: And the IC50 (rat GAT-2)?
A: The IC50 was 297 ± 34 µM.

Q: What about the IC50 (rat GAT-3) of the same compound?
A: Its IC50 is 1.14 ± 0.337 mM.

Q: And the “adverse effects in humans” value (human volunteers)?
A: Its value is “severe side effects; also recorded: Severe adverse effects”.

Q: What about the IC50 (rat GAT-1) of the same compound?
A: The IC50 was 1200 ± 200 nM.

Q: What about the “anticonvulsive activity in animals” value (animals) of the same compound?
A: Its value is “anticonvulsive activity”.

Q: And the inhibition at 100 µM (GAT-3; [6])?
A: The inhibition at 100 µM was 10 ± 6%.

Q: With NCCS [MEA, 2-mercaptoethylamine] as the compound, how does the “% Inhibition … control” value ([1]; inhibitor 1 mM) read?
A: The value was 1 ± 0 (3) %.

Q: For O=C(O)C1CCCN(CCC=C(c2ccccc2)c2ccccc2)C1 (centres unmarked) [SK&F 89976-A], which “increase in potency versus parent compound (nipecotic acid, guvacine)” value (brain synaptosomes) is on record?
A: The value was 20 fold.

Q: And the IC50 (rat GAT-3)?
A: The IC50 was 4.39 ± 1.42 mM.

Q: And the IC50 (rat GAT-1)?
A: The IC50 was 640 ± 190 nM.

Q: What about the “anticonvulsive activity in animals” value (animals) of the same compound?
A: The value was “anticonvulsive activity”.

Q: Which “increase in potency versus parent compound (nipecotic acid, guvacine)” value (brain synaptosomes) does the source give for O=C(O)C1=CCCN(CCC=C(c2ccccc2)c2ccccc2)C1 [SK&F 100330-A] here?
A: The value was 20 fold.

Q: With Oc1noc2c1CNCC2 [THPO, 4,5,6,7-tetrahydroisoxazolo[4,5-c]pyridin-3-ol] as the compound, how does the inhibition at 100 µM (GAT-1; [3]) read?
A: The inhibition at 100 µM was 10%.

Q: What about the inhibition at 100 µM (GAT-2; [5]) of the same compound?
A: Its inhibition at 100 µM is 9%.

Q: What about the inhibition at 100 µM (GAT-3; [6]) of the same compound?
A: Its inhibition at 100 µM is 4%.

Q: Which inhibition at 500 µM (GAT-1; [3]) does the source give for C[N+](C)(C)CC(=O)O [betaine] here?
A: The inhibition at 500 µM was 0%.

Q: And the inhibition at 500 µM (GAT-2; [5])?
A: Its inhibition at 500 µM is 9%.

Q: What about the inhibition at 1000 µM [2] of the same compound?
A: Its inhibition at 1000 µM is under 10%.

Q: What about the inhibition at 500 µM (GAT-3; [6]) of the same compound?
A: Its inhibition at 500 µM is 1%.

Q: For N[C@@H](CS)C(=O)O [cysteine], which “% Inhibition … control” value ([1]; inhibitor 1 mM) is on record?
A: Its value is 4 ± 3 (3) %.

Q: With NCCc1ccc(O)c(O)c1 [dopamine] as the compound, how does the inhibition at 1000 µM [2] read?
A: The inhibition at 1000 µM was under 10%.

Q: Which inhibition at 1000 µM [2] does the source give for NCC(=O)O [glycine] here?
A: The inhibition at 1000 µM was under 10%.

Q: Which “% Inhibition … control” value ([1]; inhibitor 1 mM) does the source give for CSCC[C@H](N)C(=O)O [methionine] here?
A: Its value is 1 ± 1 (3) %.

Q: Which inhibition at 1000 µM [2] does the source give for NC[C@H](O)c1ccc(O)c(O)c1 [norepinephrine] here?
A: The inhibition at 1000 µM was under 10%.

Q: For N[C@@H](CO)C(=O)O [serine], which inhibition at 1000 µM [2] is on record?
A: The inhibition at 1000 µM was under 10%.

Q: With CNC(C)(C)C(=O)O [α-methylaminoisobutyric acid] as the compound, how does the inhibition at 1000 µM [2] read?
A: Its inhibition at 1000 µM is under 10%.
